In patent US20250092360A1, “METHODS AND COMPOSITIONS FOR GENERATING SOMATOSTATIN+ INTERNEURONS FROM HUMAN FOREBRAIN NEURAL PROGENITOR CELLS” (Trailhead Biosystems Inc., priority 2023, published 2025):
“And” between values parts separate entries of the source, which are not always exact repeats. Identical values can stand only once. “Also recorded” adds a separate entry of the source.

Experiments:
[1] = system: forebrain-committed neural progenitor cells; assay: HD-DoE stage 5, 8-factor experiment (GDNF, BDNF, NT-3 ...): Somatostatin expression; type: cell-based, human; conditions: for impact on expression of Somatostatin: FIG. 24 dynamic profile, in words; for factor contribution, expression of Somatostatin: positive, 8-factor experiment of FIG. 23
Procedure: To investigate the effects of other factors on differentiation of forebrain-committed neural progenitor cells to Somatostatin interneuron cells, an additional HD-DoE experiment was performed for 3 days on cells that were treated with stage 1 to stage 4 medium for a total of 12 days prior to the new experiment. This experiment, the results of which are shown in FIG. 23, included eight effectors, GDNF, BDNF, NT-3, ß-NGF, Linoleic acid, 5-Cholesten-3β, LIF and TGF-β3. In this model, we focused on maximum expression of Somatostatin gene expressed in Somatostatin (+) interneurons (Urban-Ciecko and Barth (2016) Nature Reviews Neurosci. 17:401-409). When the model was optimized for maximum expression of Somatostatin, BDNF, NT-3, beta-NGF and Linoleic acid had the highest factor contributions, 25.7, 2, 19.9, 23.5, respectively.
Therefore, the latter were excluded in the recipe.

[2] = system: stage 2 neural stem cells; assay: HD-DoE stage 3 experiment: ASCL1, LHX6, DLX1 expression; type: cell-based, human; conditions: for factor contribution, expression of ASCL1: positive, model optimized for maximum ASCL1 at 1700
Procedure: To further guide the cells to medial ganglionic eminence progenitor fate, an additional HD-DoE experiment was performed for 3 days on cells that were treated with stage 1 and stage 2 media for total of 6 days prior to start of the experiment. This experiment included 13 effectors, LDN193189, A8301, GNF5837, AZD3147, GSI-XX, Takinib, PD0325901, PD173074, BLU9931, IGF-1, MHY1485, Purmorphamine and Prostratin. In this model, we focused on maximum expression of genes expressed in neuronal progenitor cells in medial ganglionic eminence (MGE) region including ASCL1, LHX6 and DLX1 (Silberberg et al. (2016) Neuron 92:59-74). When the model was optimized for maximum expression of ASCL1 at 1700, A8301, GSI-XX, Purmorphamine and Takinib, which is an inhibitor of TAK1 pathway, had the highest factor contributions, 18.1, 14.1, 12.7 and 10.1 respectively. […] MHY 1485 also had positive contribution however the factor was below 2 (FIG. 9).
Therefore, six effectors including A8301, GSI-XX, Takinib, GNF5837, IGF-1 and Purmorphamine were finalized as ingredients of stage 3 differentiation media. A representative recipe for Stage 3 differentiation is summarized below in Table 3.

[3] = system: stage 2 neural stem cells; assay: Factor criticality analysis, stage 3 recipe; type: cell-based, human; conditions: other five stage 3 factors present; for expression level of DLX1 when the factor is removed: 220 with all six factors; for expression level of LHX6 when the factor is removed: 240 with all six factors; for expression level of ASCL1 when the factor is removed: 1650 with all six factors
Procedure: To assess the impact of the elimination of each validated factor, dynamic profile analysis was used and compared the expression level of genes of interest in absence of each finalized factor while others are present.
In the stage 3 recipe, each of the six finalized factors were removed while the other five factors remained present and the expression levels of ASCL1, DLX1 and LHX6 were assessed compared to the presence of all six factors. […] As expected, in the absence of IGF-1, the value of DLX1 increases to 410, however, ASCL1 and LHX6 decreased to 1390 and 220, respectively.

[4] = system: human pluripotent stem cells; assay: HD-DoE stage 1, additional experiment: FEZF2 expression; type: cell-based; conditions: dynamic profile, in words
Procedure: To identify the recipe for stage 1 of differentiation, 96 different combinations of effectors generated using Design-of-Experiments compression through D-optimality were robotically prepared. The effector combinations were prepared in a basal media and were subsequently added to the cells, which were then allowed to differentiate. Three days later RNA extraction was performed, and gene expression was obtained using quantitative PCR analysis. The data were normalized and modeled using partial least squares regression analysis to the effector design, resulting in the generation of gene-specific models, which after model tuning for maximal Q2 predictive power, provided explanation of the effectors ability to control the expression of individual genes, combinatorically, and individually. Solutions within the tested space could then be explored to address desirability. To further enhance the conditions for forebrain differentiation from pluripotency, an additional HD-DoE experiment was performed. Additional gene regulatory models were obtained that were used for preparation of the differentiation protocol. The factors in this experiment included LDN193189, PD173074, BLU9931, Purmorphamine, SC79, MK2206, ZM336372, PD0325901, CHIR99021, XAV939, UCLA-GP130, Tofacitinib and GO6983. […] Dynamic profile analysis was also used to assess the interaction between the effectors.

[5] = system: human pluripotent stem cells; assay: Factor criticality analysis, stage 1 recipe (dynamic profile analysis); type: cell-based; conditions: 3500 with all factors; FIG. 12
Text: To assess the impact of the elimination of each validated factor, dynamic profile analysis was used and compared the expression level of genes of interest in absence of each finalized factor while others are present. […] When Purmorphamine was removed, levels of FEZF2 and SIX3 were decreased to 1000 and below 3000, while levels of OTX2 increased to 6500.

[6] = system: medial ganglionic eminence (MGE)-derived neural progenitors; assay: HD-DoE stage 4, 12-factor experiment: SOX6 expression; type: cell-based, human; conditions: for impact on expression of SOX6: dynamic profile, in words; for factor contribution, expression of SOX6: significant negative effect, model optimized for maximal SOX6
Text: These effectors are small chemical compounds or proteins. They are commonly used during the differentiation of stem cells to specific cell linage. The choice of the effectors was based on the current literature on forebrain neural induction and differentiation of neural progenitor cells to mature neurons.
To evaluate the effectors on SST differentiation, experiments with 8 or 12 factors were designed to assess the responses of cells to 48 or more combinations of effectors in a range of concentrations. To analyze the models, we focused on expression of genes involved in development and patterning of the forebrain interneurons maturation including LHX6 (Liodis et al. (2007) J. Neurosci. 27:3078-3089; Yuan et al. (2018) Elife 7: e37382), SOX6 (Azim et al. (2009) Nature Neurosci. 12:1238-1247; Batista-Brito et al. (2009) Neuron 63:466-481), DLX5 (de Lombares et al. (2019) Aging (Albany NY) 11:6638; Wang et al. (2010) J. Neurosci. 30:5334-5345) and ASCL1 (Barretto et al. (2020) J. Neurosci. Meth. 334:108548; Shi et al. (2016) J. Biol. Chem. 291:13560-13570). At later stages we focused on interneuron maturation genes including somatostatin and absence of Parvalbumin (Horn and Nicoll (2018) Proc. Natl. Acad. Sci. 115:589-594). The impacts of each effector on gene expression level are defined by a parameter called factor contribution that is calculated for each effector during the modeling.
To identify the recipe for differentiation at stage 4, at least 48 different combinations of effectors were robotically prepared by the Design-of-Experiments compression through D-optimality. The effector combinations were prepared in a basal media and were subsequently added to the cells, which were then allowed to differentiate. Three days later, RNA extraction was performed, and gene expression levels were examined using quantitative PCR analysis. The data was normalized and modeled using partial least squares regression analysis to the effector design, resulting in the generation of gene-specific models, which after model tuning for maximal predictive power, provided explanation of the effectors ability to control the expression of individual genes, combinatorically, and individually. Solutions within the tested space could then be explored to address desirability.
IGF-1 activates the IGF-1 pathway, promotes neuron axonal growth, and establishes the synapse of interneurons. GDNF is the […] and can activate the GDNF pathway. MK2206 is an AKT inhibitor and can inhibit cell proliferation and promote neuronal maturation. PD173074 and BLU-554 are FGFR inhibitors. The FGF pathway is required for the maintenance of neural progenitor cells. Inhibition of the FGFR pathway promotes neural maturation. GSI-XX is a notch pathway inhibitor. Notch pathway inhibits neural progenitor cell differentiation. Inhibition of the Notch pathway promotes neural differentiation.
To find the set of factors that have the potential to optimize SOX6 in this experiment, a new assessment was done through dynamic profile analysis with focus on maximal expression of SOX6.

5-Cholesten-3β
impact on expression of Somatostatin [1]: negative impact

Cc1cccc(-c2nn(C(=S)Nc3ccccc3)cc2-c2ccnc3ccccc23)n1 [A8301]
impact on expression of ASCL1 ([2]; dynamic profile, in words): positive trends; also recorded: Positive impact | impact on expression of DLX1 ([2]; dynamic profile, in words): did not have a significant negative impact | impact on expression of LHX6 ([2]; dynamic profile, in words): positive trends; also recorded: Positive impact | factor contribution, expression of ASCL1 [2]: 18.1 and 18 | expression level of DLX1 when the factor is removed [3]: did not change significantly | expression level of LHX6 when the factor is removed [3]: did not change significantly | expression level of ASCL1 when the factor is removed [3]: 1000

Cc1ccc(NC(=O)Nc2cc(C(F)(F)F)ccc2F)cc1Nc1ccc2c(c1)NC(=O)/C2=C\c1ccc[nH]1 [GNF5837]
factor contribution, expression of ASCL1 [2]: 9.4 | expression level of DLX1 when the factor is removed [3]: did not have a significant impact | expression level of LHX6 when the factor is removed [3]: 160 | expression level of ASCL1 when the factor is removed [3]: 1300

COc1ccc2c(c1)c(C1=C(c3c[nH]c4ccccc34)C(=O)NC1=O)cn2CCCN(C)C [GO6983]
impact on expression of FEZF2 [4]: positive impact | expression level of FEZF2 when the factor is removed [5]: 3200

CCCCC/C=C\C/C=C\CCCCCCCC(=O)O [Linoleic acid]
impact on expression of Somatostatin [1]: positive effect; also recorded: positive impact | factor contribution, expression of Somatostatin [1]: 23.5

O=[N+]([O-])c1ccc(Nc2nc(N3CCOCC3)nc(N3CCOCC3)n2)cc1 [MHY 1485]
factor contribution, expression of ASCL1 [2]: below 2 | impact on expression of SOX6 [6]: negative effect | factor contribution, expression of SOX6 [6]: 9.5

NC(=O)c1ccc(-c2nc(-c3ccc4c(c3)OCO4)c(-c3ccccn3)[nH]2)cc1 [SB431542]
impact on expression of SOX6 [6]: negative effect | factor contribution, expression of SOX6 [6]: 6.2

CCCn1/c(=N/C(=O)c2cccc(C(N)=O)c2)[nH]c2ccccc21 [Takinib]
factor contribution, expression of ASCL1 [2]: 10.1 | expression level of DLX1 when the factor is removed [3]: 180 | expression level of LHX6 when the factor is removed [3]: 170

CCCC(CCC)C(=O)O [Valproic acid]
impact on expression of SOX6 [6]: negative effect | factor contribution, expression of SOX6 [6]: 4.7

LIF: effector tested in the stage 5 HD-DoE experiment
impact on expression of Somatostatin [1]: negative impact

Substance P: member of the tachykinin neuropeptide family
impact on expression of SOX6 [6]: negative effect | factor contribution, expression of SOX6 [6]: 5.1

beta-NGF: effector tested in the stage 5 HD-DoE experiment
impact on expression of Somatostatin [1]: positive impact | impact on expression of Somatostatin ([1]; listed as β-NGF): positive effect | factor contribution, expression of Somatostatin [1]: 19.9

B1: TGF-β3: effector tested in the stage 5 HD-DoE experiment (protein, UniProt P10600 301-412, looked up)
Transforming growth factor …: ALDTNYCFRNLEENCCVRPLYIDFRQDLGWKWVHEPKGYYANFCSGPCPYLRSADTTHSTVLGLYNTLNPEASASPCCVPQDLEPLTILYYVGRTPKVEQLSNMVVKSCKCS
modifications: Transforming growth factor beta-3
impact on expression of Somatostatin [1]: negative impact

B2: NT-3: effector tested in the stage 5 HD-DoE experiment (protein, UniProt P20783 139-257, looked up)
Neurotrophin-3: YAEHKSHRGEYSVCDSESLWVTDKSSAIDIRGHQVTVLGEIKTGNSPVKQYFYETRCKEARPVKNGCRGIDDKHWNSQCKTSQTYVRALTSENNKLVGWRWIRIDTSCVCALSRKIGRT
impact on expression of Somatostatin [1]: positive effect; also recorded: positive impact | factor contribution, expression of Somatostatin [1]: 2
